Test results: ChEMBL document CHEMBL1201862, “PubChem BioAssay data set” (2004)
Activity calls are given as the source filed them. Unless noted, the calls are words filed in the database; no cut-off is given here.

How the values were obtained:
Assay type in all cases: functional
[1] = target: DNA dC->dU-editing enzyme APOBEC-3G (Homo sapiens, UniProt Q9HC16); assay: APOBEC3G deaminase inhibitors, SAR follow-up, biochemical, fluorescence, single-stranded DNA substrate (AID 602136); conditions: read-out: IC50_Mean
[2] = target: DNA dC->dU-editing enzyme APOBEC-3A (Homo sapiens, UniProt P31941); assay: SAR analysis of small molecule inhibitors of APOBEC3A DNA Deaminase via a fluorescence-based single-stranded DNA deaminase assay.; conditions: read-out: IC50_Mean
Chain of DNA dC->dU-editing enzyme APOBEC-3A (P31941 whole entry): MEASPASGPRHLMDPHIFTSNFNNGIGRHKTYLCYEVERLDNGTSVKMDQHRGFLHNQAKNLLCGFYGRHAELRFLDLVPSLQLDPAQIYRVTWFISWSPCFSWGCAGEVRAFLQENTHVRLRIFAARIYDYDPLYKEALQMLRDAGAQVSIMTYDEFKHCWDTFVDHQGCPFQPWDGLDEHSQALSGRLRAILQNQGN

[3] = target: Botulinum neurotoxin type A (Clostridium botulinum (strain Hall / ATCC 3502 / NCTC 13319 / Type A), UniProt P0DPI1); assay: High-throughput multiplex microsphere dose response for inhibitors of toxin protease, specifically Botulinum neurotoxin light chain A protease, compounds from Cherry Pick 02.; conditions: read-out: EC50_MICROM
Chain of Botulinum neurotoxin type A (P0DPI1 2-448 limits assumed): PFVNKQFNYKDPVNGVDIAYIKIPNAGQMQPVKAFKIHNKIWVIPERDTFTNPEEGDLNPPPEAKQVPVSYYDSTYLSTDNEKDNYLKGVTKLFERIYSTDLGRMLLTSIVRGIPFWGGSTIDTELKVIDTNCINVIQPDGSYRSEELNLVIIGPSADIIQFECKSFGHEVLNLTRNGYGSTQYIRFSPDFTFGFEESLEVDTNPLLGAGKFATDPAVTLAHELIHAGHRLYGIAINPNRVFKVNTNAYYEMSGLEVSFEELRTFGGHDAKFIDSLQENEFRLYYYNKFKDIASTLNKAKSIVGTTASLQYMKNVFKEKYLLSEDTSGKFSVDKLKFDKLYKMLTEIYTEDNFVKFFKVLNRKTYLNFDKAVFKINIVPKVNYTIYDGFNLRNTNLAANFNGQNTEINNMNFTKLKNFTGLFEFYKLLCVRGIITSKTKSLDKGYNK

[4] = target: Sphingosine 1-phosphate receptor 1 (Homo sapiens, UniProt P21453); assay: Late-stage fluorescence-based dose-response cell-based counterscreen assay to identify agonists of the Sphingosine 1-Phosphate Receptor 4 (S1P4): Sphingosine 1-Phosphate Receptor 1 (S1P1) agonist assay Set 2.
Chain of Sphingosine 1-phosphate receptor 1 (P21453 whole entry): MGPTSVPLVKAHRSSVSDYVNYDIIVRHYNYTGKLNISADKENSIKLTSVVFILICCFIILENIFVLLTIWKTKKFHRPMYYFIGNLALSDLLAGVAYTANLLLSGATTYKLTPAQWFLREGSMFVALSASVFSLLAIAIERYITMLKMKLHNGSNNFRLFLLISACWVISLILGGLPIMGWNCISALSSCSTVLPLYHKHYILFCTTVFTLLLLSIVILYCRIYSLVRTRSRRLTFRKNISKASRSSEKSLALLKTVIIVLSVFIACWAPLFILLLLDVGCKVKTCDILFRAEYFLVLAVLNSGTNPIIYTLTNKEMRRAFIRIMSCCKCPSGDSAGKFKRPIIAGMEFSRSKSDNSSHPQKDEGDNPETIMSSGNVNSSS

[5] = target: Sphingosine 1-phosphate receptor 5 (Homo sapiens, UniProt Q9H228); assay: S1P5 receptor agonists, human, late-stage follow-up, counter-screen for S1P4 agonist project, cell-based, fluorescence, set 2 (AID 504867)
[6] = target: Sphingosine 1-phosphate receptor 3 (Homo sapiens, UniProt Q99500); assay: Late-stage fluorescence-based dose-response cell-based counterscreen assay to identify agonists of the Sphingosine 1-Phosphate Receptor 4 (S1P4): Sphingosine 1-Phosphate Receptor 3 (S1P3) agonist assay Set 2.
[7] = target: Sphingosine 1-phosphate receptor 2 (Homo sapiens, UniProt O95136); assay: S1P2 receptor agonists, human, late-stage follow-up, counter-screen for S1P4 agonist project, cell-based, fluorescence, set 2 (AID 504873)
[8] = Luminescence Cell-Based Dose Response HTS to Identify Activators of Luciferase Translation or Activity in H4 […] Cells. [Related pubchem assays: 1829 (Project Summary), 1814 (Primary HTS)]
[9] = test system: H4; assay: Luminescence Cell-Based Dose Response HTS to Identify Activators of 5'UTR Stem-Loop Driven Prion Protein mRNA Translation in H4 Neuroglioblastoma Cells. [Related pubchem assays: 1829 (Project Summary), 1814 (Primary HTS)]; conditions: Homo sapiens
[10] = target: Multidrug resistance protein CDR1 (Candida albicans, UniProt P43071); assay: CaCDR1 efflux pump inhibitors in yeast, dose response, S. cerevisiae AD1-8u, singleplex, Cherry Pick1 hits (AID 588606)
Chain of Multidrug resistance protein CDR1 (P43071 whole entry, looked up): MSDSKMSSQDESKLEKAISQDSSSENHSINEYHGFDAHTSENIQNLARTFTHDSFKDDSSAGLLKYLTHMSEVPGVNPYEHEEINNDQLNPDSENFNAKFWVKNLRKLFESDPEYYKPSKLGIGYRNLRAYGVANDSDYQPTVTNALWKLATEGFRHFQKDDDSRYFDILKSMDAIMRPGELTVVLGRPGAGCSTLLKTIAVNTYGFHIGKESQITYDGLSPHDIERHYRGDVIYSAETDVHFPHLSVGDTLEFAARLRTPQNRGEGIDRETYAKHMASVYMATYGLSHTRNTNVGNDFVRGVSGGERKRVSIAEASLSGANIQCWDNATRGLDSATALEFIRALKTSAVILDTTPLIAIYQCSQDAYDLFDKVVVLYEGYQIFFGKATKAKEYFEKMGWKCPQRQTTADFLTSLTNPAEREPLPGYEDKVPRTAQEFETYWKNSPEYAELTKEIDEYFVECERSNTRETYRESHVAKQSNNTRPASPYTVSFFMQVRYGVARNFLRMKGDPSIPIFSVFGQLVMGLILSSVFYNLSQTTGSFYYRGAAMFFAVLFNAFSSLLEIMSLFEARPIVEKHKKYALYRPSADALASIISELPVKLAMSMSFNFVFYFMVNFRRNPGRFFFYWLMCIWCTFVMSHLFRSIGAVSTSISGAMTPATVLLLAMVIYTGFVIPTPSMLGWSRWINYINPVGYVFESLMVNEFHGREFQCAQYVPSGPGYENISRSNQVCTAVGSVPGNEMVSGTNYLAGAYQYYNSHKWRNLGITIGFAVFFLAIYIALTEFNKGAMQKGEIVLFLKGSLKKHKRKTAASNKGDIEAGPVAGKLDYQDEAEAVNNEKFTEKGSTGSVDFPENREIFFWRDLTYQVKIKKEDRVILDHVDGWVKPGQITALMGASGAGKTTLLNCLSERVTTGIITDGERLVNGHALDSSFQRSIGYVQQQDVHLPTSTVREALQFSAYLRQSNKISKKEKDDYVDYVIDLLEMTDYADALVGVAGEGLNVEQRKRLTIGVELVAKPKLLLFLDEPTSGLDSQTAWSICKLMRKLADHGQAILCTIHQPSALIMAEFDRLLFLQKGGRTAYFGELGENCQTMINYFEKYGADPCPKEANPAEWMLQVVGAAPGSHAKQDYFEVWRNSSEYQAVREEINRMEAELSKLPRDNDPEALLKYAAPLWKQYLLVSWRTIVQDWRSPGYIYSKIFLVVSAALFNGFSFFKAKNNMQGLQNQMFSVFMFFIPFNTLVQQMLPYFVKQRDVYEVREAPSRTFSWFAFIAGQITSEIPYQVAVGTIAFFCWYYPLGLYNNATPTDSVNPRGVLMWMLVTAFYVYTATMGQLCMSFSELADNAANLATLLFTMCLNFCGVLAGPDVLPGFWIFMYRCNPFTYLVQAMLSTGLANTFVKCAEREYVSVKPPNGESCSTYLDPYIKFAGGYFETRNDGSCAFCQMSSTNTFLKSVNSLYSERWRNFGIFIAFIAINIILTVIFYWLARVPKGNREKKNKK

[11] = target: Apoptotic protease-activating factor 1 (Homo sapiens, UniProt O14727)
[12] = target: T1, Fatty acid synthase (Homo sapiens, UniProt P49327); assay: FAS thioesterase domain inhibitors, dose response, biochemical, endpoint fluorescence intensity, uHTS hits (AID 624327);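 further: fluorescence from hydrolysis of an O-methyl fluorescein acyl ester substrate by the enzyme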
T1 sequence (P49327 whole entry, the tested form may be a part): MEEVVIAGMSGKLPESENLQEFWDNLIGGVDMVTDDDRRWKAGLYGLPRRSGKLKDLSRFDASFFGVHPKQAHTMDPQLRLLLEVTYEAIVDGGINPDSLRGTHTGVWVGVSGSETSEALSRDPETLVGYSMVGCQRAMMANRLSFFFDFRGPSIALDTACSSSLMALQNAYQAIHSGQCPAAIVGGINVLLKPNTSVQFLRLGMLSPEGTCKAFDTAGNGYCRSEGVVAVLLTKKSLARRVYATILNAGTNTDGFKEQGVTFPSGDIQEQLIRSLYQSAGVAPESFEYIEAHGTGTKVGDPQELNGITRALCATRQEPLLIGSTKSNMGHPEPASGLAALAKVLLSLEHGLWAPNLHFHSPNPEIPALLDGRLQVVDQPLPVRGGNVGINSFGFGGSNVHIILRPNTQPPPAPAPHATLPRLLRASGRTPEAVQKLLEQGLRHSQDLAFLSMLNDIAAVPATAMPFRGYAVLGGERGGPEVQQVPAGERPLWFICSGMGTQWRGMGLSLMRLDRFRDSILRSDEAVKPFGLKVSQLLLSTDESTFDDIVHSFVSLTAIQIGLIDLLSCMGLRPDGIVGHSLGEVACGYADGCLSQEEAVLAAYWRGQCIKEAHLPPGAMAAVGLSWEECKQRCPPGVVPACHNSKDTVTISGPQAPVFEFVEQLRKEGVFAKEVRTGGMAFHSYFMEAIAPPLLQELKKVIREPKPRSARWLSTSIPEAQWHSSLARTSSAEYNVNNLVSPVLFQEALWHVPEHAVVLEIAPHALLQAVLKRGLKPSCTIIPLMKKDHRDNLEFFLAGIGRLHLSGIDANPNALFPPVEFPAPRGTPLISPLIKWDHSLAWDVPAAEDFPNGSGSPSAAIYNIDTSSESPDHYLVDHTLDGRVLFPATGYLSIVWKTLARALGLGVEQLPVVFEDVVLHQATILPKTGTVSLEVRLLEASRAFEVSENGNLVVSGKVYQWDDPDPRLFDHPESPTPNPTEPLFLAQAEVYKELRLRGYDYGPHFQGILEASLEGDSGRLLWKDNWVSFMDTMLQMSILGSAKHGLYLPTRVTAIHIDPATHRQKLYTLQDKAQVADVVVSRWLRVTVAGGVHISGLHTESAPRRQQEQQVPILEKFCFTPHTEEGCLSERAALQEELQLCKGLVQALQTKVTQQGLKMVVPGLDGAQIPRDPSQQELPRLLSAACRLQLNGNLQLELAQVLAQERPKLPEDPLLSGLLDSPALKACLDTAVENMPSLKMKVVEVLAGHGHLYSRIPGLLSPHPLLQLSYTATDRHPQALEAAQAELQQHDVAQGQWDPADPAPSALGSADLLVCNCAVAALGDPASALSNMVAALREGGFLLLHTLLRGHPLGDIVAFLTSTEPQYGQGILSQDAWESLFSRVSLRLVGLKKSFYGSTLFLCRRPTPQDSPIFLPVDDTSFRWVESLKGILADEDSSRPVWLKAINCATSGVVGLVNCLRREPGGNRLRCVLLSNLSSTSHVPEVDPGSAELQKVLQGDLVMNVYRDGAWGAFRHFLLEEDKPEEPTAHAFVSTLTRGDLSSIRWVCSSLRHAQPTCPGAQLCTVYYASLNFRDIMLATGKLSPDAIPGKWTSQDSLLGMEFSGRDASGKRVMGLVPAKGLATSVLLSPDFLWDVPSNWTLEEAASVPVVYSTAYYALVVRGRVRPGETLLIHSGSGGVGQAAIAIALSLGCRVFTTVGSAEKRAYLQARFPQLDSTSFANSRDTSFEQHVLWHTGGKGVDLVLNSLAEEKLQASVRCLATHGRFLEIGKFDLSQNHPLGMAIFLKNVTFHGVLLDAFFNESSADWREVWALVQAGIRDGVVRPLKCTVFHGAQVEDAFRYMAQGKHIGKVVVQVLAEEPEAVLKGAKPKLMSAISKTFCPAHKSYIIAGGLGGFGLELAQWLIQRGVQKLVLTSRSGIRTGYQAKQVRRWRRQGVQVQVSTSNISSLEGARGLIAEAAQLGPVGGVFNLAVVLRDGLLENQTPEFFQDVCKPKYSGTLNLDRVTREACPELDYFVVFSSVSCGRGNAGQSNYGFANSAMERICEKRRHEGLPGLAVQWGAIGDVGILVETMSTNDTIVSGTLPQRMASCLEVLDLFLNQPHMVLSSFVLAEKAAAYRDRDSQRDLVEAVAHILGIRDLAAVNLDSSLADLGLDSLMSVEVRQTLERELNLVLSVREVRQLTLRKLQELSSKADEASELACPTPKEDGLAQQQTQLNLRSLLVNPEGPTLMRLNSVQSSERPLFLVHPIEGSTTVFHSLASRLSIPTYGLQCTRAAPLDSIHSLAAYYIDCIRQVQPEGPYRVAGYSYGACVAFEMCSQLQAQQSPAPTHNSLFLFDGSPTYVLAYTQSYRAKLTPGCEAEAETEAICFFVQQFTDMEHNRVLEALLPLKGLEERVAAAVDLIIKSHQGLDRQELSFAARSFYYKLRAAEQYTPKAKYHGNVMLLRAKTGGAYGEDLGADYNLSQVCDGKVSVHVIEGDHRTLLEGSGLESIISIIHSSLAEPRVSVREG

[13] = target: T1, Fatty acid synthase; assay: FAS thioesterase domain inhibitors, dose response, biochemical, kinetic fluorescence intensity (AID 624326);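 further: rate of fluorescence rise from hydrolysis of a fluorogenic O-methyl fluorescein ester substrate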

With `O=C1NC(=S)NC(=O)C1=Cc1ccc2c(c1)CCN2Cc1ccccc1Cl` the IC50 [1] was 77.5 µM (inactive) and the IC50 [2] was 9.78 µM (active).

For `Cc1onc(-c2ccccc2Cl)c1C(=O)NCc1ccc2c(c1)cc(C)n2C`, the EC50 [3] was 4.2 µM (active).

In the case of `CC/N=C1/S/C(=C/c2cc(C)n(Cc3ccccc3)c2C)C(=O)N1CC`, the EC50 [4] is reported as 0.185 µM (active), the EC50 [5] is reported as 0.0631 µM (active) and the EC50 [6] is reported as 12.9 µM (inactive). For the same compound, the EC50 [7] was 3.28 µM (active).

With `O=C(/C=C/c1ccccc1Cl)NCCc1ccccc1` the EC50 [8] was 4.27 µM (active), the EC50 [9] was > 120 µM (not active) and the EC50 [10] was 0.514 µM (active).

For `CC(C)c1ccc(/C=N/Nc2cc(N3CCOCC3)nc(N3CCOCC3)n2)cc1`, the IC50 [11] was 19.1 µM (active), the IC50 [12] was 0.752 µM (active) and the IC50 [13] was 0.379 µM (active).
